This note sets out measurements from patent EP4640223A1, “PHARMACEUTICAL COMPOSITION FOR PREVENTION OR TREATMENT OF CARDIOVASCULAR DISEASE, COMPRISING SODIUM-GLUCOSE COTRANSPORTER-2 INHIBITOR AND ANGIOTENSIN II RECEPTOR BLOCKER” (THPharm Corp., priority 2022, dated 2024).

Series [1] has as its system MDCK cells. The series can be described thus: Cell survival rate (MTT) in MDCK cells. The series is classed as cell-based. Conditions: after 24 hours and 48 hours, up to a concentration of 25 µM. Here is the method:
(§1) Specifically, A549 cells were obtained from the Korean Cell Line Bank (KCLB) and subcultured using a RPMI-1640 medium supplemented with 10% fetal bovine serum (FBS) and 1% Penicillin, and MDCK cells were obtained from ATCC and subcultured using a DMEM medium supplemented with 10% FBS. 200 µl each of the A549 cells and MDCK cells incubated in an incubator under 37°C and 5% CO2 conditions were dispensed at 2 × 10^4 cells/well in a 96-well plate, and then a control group was treated with 100 µl of the medium, and experimental groups were treated with 1.25, 25, 50, and 100 µM of Telmisartan or Olmesartan, respectively. After 24 hours and 48 hours, all of the wells were treated with 50 µl each of a 2 mg/ml MTT reagent and incubated in an incubator for 3 hours, and then each well was added with 500 µl of DMSO, wrapped in foil, stirred for 30 minutes at room temperature, and the absorbance was measured at 570 nm to obtain the cell survival rate.

For series [2] the following is noted: Telmisartan 80 mg in the presence of Dapagliflozin 10 mg, repeated oral, steady state.
Series [3] relates to angiotensin converting enzyme (ACE). The series is described as follows: ACE protein expression (Human ACE ELISA) in LPS inflammation-induced H9c2 cells. The series is classed as cell-based, rat. The procedure:
Specifically, H9c2 cells as a human cardiac cell line were obtained and used from the Korea Cell Line Bank (KCLB 40071, Korea) and incubated and prepared in a DMEM medium supplemented with 10% FBS and 1% antibiotic-antimycotic (10 units/ml penicillin, 100 µg/ml streptomycin, 0.25 µg/ml amphotericin) under 37°C and 5% CO2 conditions.
To confirm the effect on ACE activity, the prepared H9c2 cells were treated with 2.5 µg/ml of Lipopolysaccharide (LPS), which was 2.5 times more than the amount used in conventional inflammation-related experiments, to induce inflammation, thereby setting the optimized conditions for confirming ACE expression. […]
To perform the ELISA assay, 10,000 pg/ml, 5,000 pg/ml, 2,500 pg/ml, 1,250 pg/ml, 625 pg/ml, 312 pg/ml, and 156 pg/ml of Human ACE standard solutions and a standard dilution buffer were added by 0.1 ml to each well of an antibody-coated 96-well plate. […] Thereafter, each well was added with 90 µl of the prepared TMB solution, incubated for 20 to 25 minutes in a dark room at 37°C, and then treated with each 0.1 ml of the prepared TMB stop solution to stop an ACE ELISA reaction, and the OD absorbance at 450 nm was read in a microplate reader within 30 minutes, and the relative OD450 was derived using the following Equation. […]
(An ELISA detects its analyte on a solid surface through an enzyme-linked reagent.)

Series [4] in a line: 4-week repeated oral administration toxicity. Conditions: daily for 4 weeks. In kind it is in vivo, Sprague-Dawley rats. Here is the method:
Specifically, groups were configured in the same manner as in Experimental Example 4-1, and the combinations were administered orally daily for 4 weeks to 5 male and 5 female 6-week-old Sprague-Dawley rats per group. During the test, general symptom observation, blood test, and body weight measurement were performed, and after the observation period ended, the rats were euthanized and autopsied.

Series [5] concerns angiotensin converting enzyme (ACE). The series is described as follows: ACE mRNA expression (RT-PCR, normalized to GAPDH) in LPS inflammation-induced H9c2 cells. The series is classed as cell-based, rat. Here is the method: Specifically, LPS inflammation-induced H9c2 cells in Experimental Example 1-2 were treated with 10 or 25 µM Telmisartan and 10 or 50 µM Olmesartan, and then treated with 200 µl of chloroform together with 1 ml of TRIZol (Sigma, USA), gently mixed, and separated for 10 minutes, and then centrifuged at 4°C and 10,000 rpm for 10 minutes. After centrifugation, only the supernatant from the tube was taken and transferred to a new sterile tube, and the supernatant was treated with 500 µl of isopropanol to precipitate RNA. The precipitated RNA was centrifuged at 4°C, 10,000 rpm for 10 minutes, and then the supernatant except for the pellets in the tube was fully removed, and the RNA pellets were treated with 500 µl of 75% ethyl alcohol and thoroughly washed. The washed pellets were centrifuged at 4°C, 10,000 rpm for 5 minutes, and then the supernatant except the pellets was fully removed. The tube containing the pellets from which the supernatant had been cleanly removed was treated with diethyl pyrocarbonate (DEPC)-water and stored at - 80°C for use in an RT-PCR experiment.
RT-PCR was performed by synthesizing cDNA from mRNA using an RT-PCR kit containing DNA polymerase, buffer, dNTP, and tracking dye, and then using ACE primers in Table 1 under the conditions in Table 2 for 35 cycles. The PCR products were electrophoresed on a […] agarose gel, identified using a UV transilluminator, and expressed as normalized to GAPDH for quantitative comparison.
In order to confirm the effect of each combination or single substance on the mRNA expression of ACE, the experimental samples in Table 3 were treated to H9c2 cells induced with LPS inflammation in Experimental Example 1-2, respectively, and then the mRNA expression of ACE was evaluated in the same manner as in Experimental Example 1-3.

Series [6] has as its system A549 cells. The series is described as follows: Cell survival rate (MTT) in A549 cells. The series is classed as cell-based. The following applies: after 24 hours and 48 hours, up to a concentration of 25 µM. The procedure:
as §1

With `CCCc1nc2c(C)cc(-c3nc4ccccc4n3C)cc2n1Cc1ccc(-c2ccccc2C(=O)O)cc1` [Telmisartan, 4'-[(1,4'-dimethyl-2'-propyl[2,6'-bi-1H-benzimidazol]-1'-yl)methyl][1,1'-biphenyl]-2-carboxylic acid], the cell survival rate result in series [1] and in series [6] was “no effect” in each case. The “Cmax T/R ratio” value in series [2] (90% confidence interval 0.99 to 1.43) was determined as 1.19. The “AUC T/R ratio” value in series [2] (90% confidence interval 1.01 to 1.18) worked out at 1.09. Moreover, the “ACE expression inhibition effect” value in series [3] (25 µM treatment group) is reported as “the best”; in series [3] (all treatment concentrations (10, 25, 50 µM), comparison with Olmesartan), “superior to that of Olmesartan”. Further, the body weight measurement entry in series [4] is “tendency for inhibiting weight gain”. Further, in series [5] (ACE mRNA, 25 µM treatment group), the mRNA expression entry is recorded as “mostly inhibited”. The “mRNA expression inhibition effect” value in series [5] (ACE mRNA, all treatment concentrations (Telmisartan 10 or 25 µM, Olmesartan 10 or 50 µM)) was “superior to that of Olmesartan”. The “mRNA expression of ACE” value in series [5] (alone, low-concentration administration groups of 2.5 µM to 10 µM) was “did not decrease to a normal level”.
